Test results as given in PubChem BioAssay AID179 (DTP/NCI, 2004).
Where “and” joins values, the source holds several entries; their conditions need not be identical. Equal entries are not always repeated. Calls of active or inactive are those of the source.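 The calls were made as follows: active = compounds giving half or more protection of infected cells from virus-caused growth loss, again on retest; inactive = the rest.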

Tested on: CEM cells HIV-1 protection, formazan growth assay
Test: NCI AIDS Antiviral Assay
Conditions: for IC50: measured here: growth of uninfected CEM cells
Outline: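 Human CEM cells, uninfected and HIV-1-infected, received five drug concentrations, and growth was read by soluble formazan assay. Compounds giving at least 50% protection were retested; reproducible 100% protection defined confirmed active.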

| Structure (SMILES) | EC50 | IC50 | outcome |
| --- | --- | --- | --- |
| CC(C)CCCC(C)[C@H]1CC[C@H]2[C@@H]3CC[C@H]4C[C@@H](CCC=C(c5cc(Cl)c(OC(=O)C(C)(C)C)c(C(=O)O)c5)c5cc(Cl)c(OC(=O)C(C)(C)C)c(C(=O)O)c5)CC[C@]4(C)[C@H]3CC[C@]12C (stereo partly drawn) | 75.9 µM | > 100 µM |  |
| O=C1OC(CCCl)(c2ccccc2)CC1CN1CCOCC1 (stereo not drawn) | > 692 µM | 10.5 µM |  |
| Cc1ccc2c(c1)C(=O)C(Cc1ccccc1C(=O)O)C2 (stereo not drawn) | > 200 µM | 178 µM |  |
| CCCCNC(=O)C1C2C=CC(O2)C1C(=O)O (stereo not drawn) | > 200 µM | > 200 µM |  |
| CCC(C)C(=O)c1c(O)c(CC=C(C)C)c2c3c(cc(=O)oc13)C(CC)O2 (stereo not drawn) | > 200 µM | 25.1 µM |  |
| CC(=O)C1Cn2c(nc3ccccc32)C[Se]1 (stereo not drawn) |  |  | inactive |
| COc1ccc(NC(=O)C(=O)NO)c(OC)c1 | > 537 µM | 234 µM |  |
| Oc1ccc(-c2c3ccccc3c(-c3ccc(O)cc3)c3ccccc23)cc1 | > 2.75 µM | > 2.75 µM |  |
| COC(=O)C1CC2C(=O)N(c3ccccc3)C(=O)C2c2c1n(C)c1ccccc21 (stereo not drawn) | > 32.4 µM | > 32.4 µM |  |
| CC(=O)C(C)(C)CCC(C)(C)C(C)=O |  |  | inactive |
| Cc1cn(C2CC(N=[N+]=[N-])C(COC(=O)CCCCCCCCCCCc3ccccc3)O2)c(=O)[nH]c1=O (stereo not drawn) | 0.0955 µM | 89.1 µM |  |
| CSc1ccc(NC(=S)NN(C)C)cc1 | > 200 µM | 93.3 µM |  |
| CN1CCC2(CC1)OC(c1ccccc1)C(c1ccccc1)O2 (stereo not drawn) | > 200 µM | 115 µM |  |
| CC(=N)C(C#N)C(=S)S (stereo not drawn) | > 537 µM | 27.5 µM |  |
| Brc1ccc2c(c1)C1=C(CO2)Cc2ccccc2O1 |  |  | inactive |
| NC(=O)OCc1c(-c2ccccc2)nn(-c2ccccc2)c1COC(N)=O | > 200 µM | > 200 µM |  |
| Cc1ccc(C[N+](C)(C)c2ccccc2)o1 | > 724 µM | 102 µM |  |
| COc1ccc2c(c1)C(=O)C1CC(=O)CCC21 (stereo not drawn) | > 288 µM | > 288 µM |  |
| O=[N+]([O-])c1cccc(/C=N\NS(=O)(=O)c2ccc(Cl)cc2)c1O | > 363 µM | 61.7 µM |  |
| O=S(=O)(O)c1cc(N=Nc2cc(S(=O)(=O)O)c3ccccc3c2O)ccc1/C=C/c1ccc(N=Nc2cc(S(=O)(=O)O)c3ccccc3c2O)cc1S(=O)(=O)O | 33.9 µM and 12.3 µM | 191 µM and > 200 µM |  |
| CC(O)c1nc2c3ccccc3ccc2n1C (stereo not drawn) | > 776 µM | 389 µM |  |
| CCN1OC(C)(C)C2CCC(C)CC21 (stereo not drawn) | > 1260 µM | > 1260 µM |  |
| CN(C(=O)C12C3C4C1C1C2C3C41C(O)C(C)(C)C)C(C)(C)C (stereo not drawn) | > 117 µM | > 117 µM |  |

| Structure (SMILES) | EC50 | IC50 | outcome |
| --- | --- | --- | --- |
| CC(=O)Nc1ccc(/C=C2\SC(=S)N(/C=C3/C(=O)N(c4ccccc4)N=C3C)C2=O)cc1 | > 200 µM | 72.4 µM |  |
| Nc1nc(Cl)cc(NCC2(CO)COC2)n1 | > 200 µM | > 200 µM |  |
| O=c1cc[nH]c(=O)n1C1CCC(CO)O1 (stereo not drawn) | > 200 µM | > 200 µM |  |
| Oc1cnc2c(O)cccc2c1 | > 200 µM | 17.8 µM |  |
| Cc1cccc(C)c1NC(=O)C(=O)CC(=O)CO | > 724 µM | > 724 µM |  |
| COc1ccc(NC/C=C/C(=C/COC(C)=O)OC(C)=O)cc1 | > 200 µM | 3.16 µM |  |
| CCOC(=O)N1CCN(Cc2cc(=O)n3cc(C)ccc3n2)CC1 | > 200 µM | > 200 µM |  |
| CN(C)Cc1cc(C(=O)/C=C/c2cccc(Cl)c2)cc(CN(C)C)c1O |  |  | inactive |
| CC1NCC(O)C(O)C1O (stereo not drawn) | > 49 µM | > 49 µM |  |
| C#CCOCn1cnc2ncnc(Cl)c21 | > 1120 µM | > 200 µM |  |
| C[C@@]12C[C@@H](c3ccccc3O1)N1CCCSC1=N2 | 74.1 µM | > 200 µM |  |
| COc1ccc(N2C(=O)[C@@H](N=[N+]=[N-])[C@@H]2[C@H]2COC(C)(C)O2)cc1 | > 407 µM | > 407 µM |  |
| COc1ccc(/C=C2/N=C(N/N=C\C(O)C(O)C(O)CO)NC2=O)cc1 (stereo not drawn) | > 200 µM | 79.4 µM | inactive |
| CCCN(CCc1ccc(-c2ccccc2)cc1)CCc1ccc2n[nH]nc2c1 | > 200 µM | 10 µM |  |
| CN1CC(=O)N2Cc3ccccc3-n3cccc3C2C1 (stereo not drawn) |  |  | inactive |
| CN(C)Cc1cc(C(=O)/C=C/c2ccc(Br)cc2)cc(CN(C)C)c1O | > 200 µM | 4.47 µM |  |
| CCOC(=O)C1C(=O)CC1(C)C (stereo not drawn) | > 200 µM | > 200 µM |  |
| CC(=O)Nc1ccc2[nH]c(C(=O)N3CC(CCl)c4c3cc(N)c3ccccc43)cc2c1 (stereo not drawn) | > 0.2 µM | 0.00933 µM |  |
| CN1CCCCC(C(O)(c2ccccc2)c2ccccc2)C1=O (stereo not drawn) | > 115 µM | 0.363 µM |  |
| CC(=O)OC/C=C/Cn1cnc(C(N)=O)c1N | > 200 µM | > 200 µM |  |
| COc1ccccc1NC(=O)C(/C=N/C(=S)NCCNc1ccc(OC)c(OC)c1)=C(\C)O | > 200 µM | 51.3 µM |  |
| COC1/C=C/OC2(C)Oc3c(C)c(OC(C)=O)c4c(c3C2=O)C(=O)C=C(NC(=O)/C(C)=C\C=C\C(C)C(OC(C)=O)C(C)C(O)C(C)C(OC(C)=O)C1C)C4=O (stereo not drawn) | > 200 µM | 3.02 µM |  |
| CCN(CC)CC(=O)NC1c2ccccc2Oc2ccccc21 | > 219 µM | > 219 µM |  |

| Structure (SMILES) | EC50 | IC50 | outcome |
| --- | --- | --- | --- |
| Cn1cccc1/C=N/N=C(/N)NO |  |  | inactive |
| O=C(/C=C/c1ccc(F)c(F)c1)OCCc1ccccc1 | > 200 µM | 38.9 µM |  |
| Cc1ccc(NC(=O)CC/C(CC(=O)C(C)(C)C)=N\Nc2ccc([N+](=O)[O-])cc2[N+](=O)[O-])cc1C | > 14.8 µM | > 14.8 µM |  |
| NC(=O)CC1C(CO)OC(n2ccc(=O)[nH]c2=O)C1O (stereo not drawn) | > 200 µM | > 200 µM |  |
| COc1cc(C2SC(N)=Nc3c2c(C)nn3C(=O)c2ccccc2O)ccc1O (stereo not drawn) | > 2 µM | 0.0977 µM |  |
| N#Cc1c2c(c(N3CCOCC3)n3c1nc1ccccc13)CCCC2 | > 200 µM | 8.32 µM |  |
| CC(C)N(C(=O)C12C3C4C1C1C2C3C41C(O)C(C)(C)C)C(C)C (stereo not drawn) | 3.02 µM | 12 µM |  |
| Cc1ccnc(NS(=O)(=O)c2ccc(NC3=CC(=O)C(=O)c4ccccc43)cc2)n1 |  |  | inactive |
| O=C1c2ccccc2C2(O)Nc3c(ccc4ccccc34)C12O (stereo not drawn) | > 832 µM | 45.7 µM |  |
| N#Cc1c(N)nc(Nc2cccc3ccccc23)c(C#N)c1C#N |  |  | inactive |
| O=C1C=C(Nc2ccc([N+](=O)[O-])cc2)c2ccccc2C1=O | > 6.76 µM | > 6.76 µM |  |
| CCc1ccccc1NC(=O)CCc1nc(=S)[nH][nH]1 | > 912 µM | > 912 µM |  |
| O=C1/C(=C\c2ccc(Cl)cc2Cl)Sc2scc(-c3ccc(O)c(O)c3)[n+]21 | > 200 µM | 6.31 µM |  |
| CCOC(=O)/C=C/CC(C)(C)COC(C)=O |  |  | inactive |
| CC12CCC(=O)[C@@]1(C)CCCC2O (stereo partly drawn) |  |  | inactive |
| O=C(N/C(=C\c1cc(Cl)ccc1Cl)c1nc2ccccc2[nH]1)c1ccccc1 |  |  | inactive |
| C=CC(C)(C)C1Oc2cc(O)ccc2C(=O)C1c1ccc(OC)c(OC)c1O (stereo not drawn) | > 200 µM | 3.09 µM |  |
| COc1ccc(/C=C2\Oc3cc(OC(C)=O)ccc3C2=O)cc1 | > 200 µM | 37.2 µM |  |
| N#CCCN(CCN(C(=O)Nc1ccccc1)c1ccccc1)C(=O)Nc1ccccc1 | > 200 µM | 55 µM |  |
| CC1=NN(c2ccccc2)C(=O)C1C(=O)C(=O)Nc1ccc(C)cc1C (stereo not drawn) |  | 102 µM | inactive |
| Cc1ccc(OCC2OC(n3cnc4c(Cl)nc(N)nc43)CC2Oc2ccc(C)cc2)cc1 (stereo not drawn) | > 200 µM | 66.1 µM |  |
| O=C(O)CCSC(=S)Nc1ccc([N+](=O)[O-])cc1 |  |  | inactive |
| CCC(C)OC(=O)/C(Br)=C1/OC(=O)c2ccccc2-c2ccccc21 (stereo not drawn) | > 200 µM | 47.9 µM |  |

| Structure (SMILES) | EC50 | IC50 | outcome |
| --- | --- | --- | --- |
| Cc1ccc(S(=O)(=O)N/N=C(/c2nc3ccc([N+](=O)[O-])cc3[nH]c2=O)C(O)c2ccc(C(O)/C(=N\NS(=O)(=O)c3ccc(C)cc3)c3nc4ccc([N+](=O)[O-])cc4[nH]c3=O)cc2)cc1 (stereo not drawn) | > 39.8 µM | > 39.8 µM |  |
| Cc1ccnc(NS(=O)(=O)c2ccc(NC(=O)c3ccccc3SC(=O)CCCC[n+]3ccccc3)cc2)n1 | 15.1 µM | 102 µM |  |
| COc1ccccc1C1C(C#N)C(=O)NC(=O)C1C#N (stereo not drawn) | > 200 µM | > 200 µM |  |
| CC1=CCC23C(C1)OC(Br)(C=CC2(C)O)C3(C)C (stereo not drawn) |  |  | inactive |
| CCCC(O)c1cn(C(NC(=O)c2ccccc2)P(=O)(OCC)OCC)nn1 (stereo not drawn) | > 200 µM | > 200 µM |  |
| Cc1ccc(C(C)C)c(OP(=S)(S)Oc2cc(C)ccc2C(C)C)c1 | > 200 µM | 4.17 µM |  |
| OC12c3ccccc3C1CCCCCC21OCCCO1 (stereo not drawn) | > 200 µM | > 200 µM |  |
| CCO/C=C/C(C)C1(C(=O)OCC)CCCCC1=O (stereo not drawn) | > 97.7 µM | > 97.7 µM |  |
| COC(=O)[C@@H]1CCCN1C(=O)C1Cc2c([nH]c3ccccc23)[C@@H](C=C(C)C)N1C(=O)OC(C)(C)C(Cl)(Cl)Cl (stereo partly drawn) |  |  | inactive |
| Cc1cc(C)nc(NS(=O)(=O)c2ccc(Nc3c4ccccc4nc4c(C(=O)Nc5ccc(S(N)(=O)=O)cc5)cccc34)cc2)n1 | > 145 µM | > 145 µM |  |
| CCCCNC(=O)OCCN=C1c2ccccc2C(Br)C(Br)c2ccccc21 (stereo not drawn) | > 200 µM | 26.9 µM |  |
| CN(C)c1c([O-])c(=[N+](C)C)c1=O |  |  | inactive |
| Cl/C=C\C[N+]12CN3CN(CN(C3)C1)C2 | > 200 µM | 93.3 µM |  |
| COc1ccc(OC)c(NC(=O)C(=O)C(C(=O)c2ccccc2F)C2OC(=O)c3ccccc32)c1 (stereo not drawn) | > 275 µM | 13.2 µM |  |
| CCCCCCCCCc1c(O)c(O)c(CCCCCCCCC)c(CCCCCCCCC)c1CCCCCCCCC | > 100 µM | 16.6 µM |  |
| COc1ccc2c(NCCCCCCNc3c4ccccc4nc4cc(OC)ccc34)c3ccccc3nc2c1 |  |  | inactive |
| S=C(NCCc1ccccn1)N/N=C/c1ccccn1 | > 2 µM | 0.0257 µM |  |
| CCN(CC)CCCC(C)Nc1cc(-c2ccccc2)nc2ccccc12 (stereo not drawn) | > 17.8 µM | 7.76 µM |  |
| O=C(O)[C@H]1[C@@H](C2CCCCC2)O[C@@H](C2CCCCC2)O[C@H]1C(F)(F)F | > 200 µM | 191 µM |  |
| O=S(=O)(O)CCS | > 200 µM | > 200 µM |  |
